Test results taken from publication PMC10303371, “Activity and Selectivity of Novel Chemical Metallic Complexes with Potential Anticancer Effects on Melanoma Cells” (Molecules, 2023).
Like-named read-outs stand apart in the source and are kept apart here.

Experiments:
[1] = tested on: MeWo cells; test: Time-Lapse Live-Cell Imaging of 2D MeWo culture; assay type: cell-based, human; conditions: 20 μM
Method: MeWo culture was performed using Time-Lapse Live-Cell Imaging System formed by a Bold Line Top Stage Incubator for 35 mm Petri dishes (H301-T UNIT BL; Okolab S.r.l., Pozzuoli, Italy), that allows the acquisition of the same field along the culture time in fixed culture point mapped by the fully automated stage. The incubator has independent control of gas (CO2/O2), humidity and temperature, and ensured an environment with 37 °C of temperature and 5% of CO2 atmosphere. The system allows acquisition in brightfield and fluorescence. All images of different fields within the culture chamber were achieved automatically, using Olympus IX83 time-lapse microscope by motorized stage and CCD monochrome camera (mod. XM10, Olympus, Segrate, Italy), and with all operations under the control of the X-Excellence advanced live-cell imaging software (version 2.0, Olympus Inc., Segrate, Italy). In our case, cell images were captured in brightfield using a 10× objective every 4 h intervals. The related videos reported in Supplementary Materials were generated with windows movie maker software (version 2.0, Microsoft) starting from the acquired frames.

[2] = tested on: MeWo cells; test: MTT cell viability assay on 2D MeWo culture; assay type: cell-based, human; conditions: for inhibition of MeWo viability / decrease in cell viability: 20 μM; for inhibition of MeWo viability / change of cell viability (in words): 24 h
Method: (§1) IC50 values for MeWo cells were calculated with GraphPad Prism software (6.0 for Windows, LLC, San Diego, CA, USA).
(§2) Then, the supernatant was removed and 100 μL of dimethyl sulfoxide (DMSO) was added to solubilize formazan crystals. The absorbance was measured at 490 nm using a microplate reader (Infinite F200 PRO, Tecan Group Ltd., Männedorf, Switzerland) Cell metabolic activity was calculated as percentage compared to the control group (considered as 100%), according to Equation (1):(1) % Cell metabolic activity=Abs of sample−Abs blank/Abs of control−Abs blank×100

[3] = tested on: histone H2AX; test: Western blot of histone H2AX phosphorylation in MeWo cells; assay type: cell-based, human; conditions: 20 μM
Method: (§3) Human melanoma cells (MeWo; ATCC®, HTB-65^TM) were grown in 100 mm Petri Dishes at a density of 1.5 × 10^4 cells/cm^2 and treated with 20 μM of AuM1 (5′-15′-30′-1 h) and AgM1 (5′-15′-30′-1 h-24 h). After treatments, cells were harvested and lysed in RIPA buffer (NaCl 150 mM, 1% triton X-100 pH 8.0, 0.5% sodium deoxycholate, 0.1% SDS, 50 mM Tris, pH 8.0), supplemented with protease inhibitors cocktail and phosphatase inhibitors (Merck), 1 h on ice. Lysates were then centrifuged for 30 min at 15,000× g and supernatant were transferred to a new 1.5 mL tube. Protein amount was determined by Bradford assay (Bio-Rad, Hercules, CA, USA) and 15 μg of total protein extracts were separated by SDS–PAGE gels and transferred onto nitrocellulose membranes. […] Immunoreactivity was detected by sequential incubation with appropriate horseradish peroxidase-conjugated secondary antibodies (Merck) for 1 h at room temperature and Pierce ECL detection reagents (Thermo Scientific, Rockford, IL, USA) on an X-ray film. […] The area under the curves, each relative to a band, was determined and the background was subtracted from the calculated values.

[4] = tested on: MeWo cells; test: Cell cycle analysis by DNA content (propidium iodide) flow cytometry; assay type: cell-based, human; conditions: 48 h
Method: Human melanoma cells (MeWo, HTB-65^TM; ATCC®, Manassas, VA, USA) were grown in 24-well plates at a density of 1 × 10^4 cells/cm^2 and treated with AuM1 (at 1 μM and 5 μM) and AgM1 (at 10 μM and 20 μM) for 24 h and 48 h. After treatments, cells were transferred in 15 mL polypropylene V-bottomed tubes, rinsed twice in ice cold PBS, and stained in freshly prepared PBS buffer containing 1 mg/mL propidium iodide (PI) (Merck Life Science S.r.l., Milan, Italy), 110,000 U/mL RNase A (Merck) and 0.1% Triton X-100 (Merck Life Science S.r.l., Milan, Italy). Cells were incubated 30 min at 4 °C in the dark and analysed with a BD FACSVerse flow cytometer (Becton Dickinson, BD, Franklin Lakes, NJ, USA) counting 1 × 10^4 events per sample. G1, S and G2/M cell cycle phase percentages were analysed by ModFit LT software (version 3.0).

[5] = tested on: p-ERK 1/2; test: Western blot of ERK phosphorylation in MeWo cells; assay type: cell-based, human; conditions: 20 μM
Method: as §3

[6] = tested on: MeWo cells; test: Apoptosis by Annexin V / propidium iodide flow cytometry; assay type: cell-based, human; conditions: 20 μM
Method: Annexin V FITC Apoptosis Detection Kit (Cat. […] Then, 5 μL of Annexin V FITC Conjugate and 5 μL of propidium Iodide PE Solution were added to 100 μL of the cell suspension (1 × 10^6 cells/mL). After incubation for 15 min at room temperature with light protection, 400 μL of Annexin V Binding Solution was added for flow cytometry analysis.

[7] = Hydrolytic stability by 1H-NMR; assay type: physicochemical; conditions: D2O-10% of DMSO-d6; 0 h, 2 h, 4 h, 24 h, 48 h and 72 h
Text: 10% of DMSO-d6, following the procedure in ref. [23]. Figures S3–S6 show the 1H-NMR […]
time. These preliminary studies can be reasonably extended to all synthesized complexes because they have a similar structure. Thus, it is possible to affirm th at these complexes are […]
(1 picture or pasted object on this page, not shown here)

[8] = tested on: MeWo 3D culture; test: Live/Dead assay on 3D MeWo cultures (spheroids); assay type: cell-based, human; conditions: 3D MeWo culture, 5 μM, 24 h, semi-quantitative
Text: High density 3D cultures were obtained using 96-well ultra-low attachment microplates (Corning, Manassas, VA, USA). Briefly, MeWo cells were resuspended at a density of 500.000 cells/mL. […] For the cell viability assay, the average value of 10 3D-systems (n = 3) were considered.
Cell viability of 3D cultures was detected by fluorescence Live/Dead assay after cellular aggregate formation. Calcein AM solution (Cat. no C1359, Sigma-Aldrich) was used to stain live cells, while cell membrane-impermeable Ethidium homodimer I solution (Cat. no E1903, Sigma-Aldrich) for nuclei of dead cells.

[9] = tested on: HaCaT cells; test: MTT selectivity study on HaCaT non-cancerous cell line; assay type: cell-based, human; conditions: 5 μM, 48 h
Method: as §1, §2

[10] = Thermal stability; assay type: physicochemical; conditions: decompose before melting
[11] = MeWo, MTT, 24 h of treatment, read-out: IC50 24 h
[12] = MeWo, MTT, 48 h of treatment, read-out: IC50 48 h
[13] = 5 μM, screening of derivatives, MTT

Compound	time of treatment after which cell death was observed [1] [h]	inhibition of MeWo viability [2]	reduction of cell viability ([2]; MeWo, 10 μM, 48 h)	decrease in cell viability ([2]; MeWo, 48 h)	IC50 [2, 11] [µM]	IC50 [2, 12] [µM]	hydrolytic stability (1H-NMR spectra over time) [7]	red signal (dead cells), Live/Dead assay [8] [%]	other results
C[n+]1ccn(CC(O)c2ccccc2)[c]1[Au-][Cl] (racemic) [AuL20]	> 40	able to inhibit MeWo viability	about 10%	25%	~24.6	31.1			change of cell viability (in words) ([2]; MeWo, 10 μM): apparent increase in cell viability
N.N.[Cl][Pt][Cl] [cisplatin, reference compound]									inhibition of MeWo cultures ([2]; even at 20 μM): not inhibited
C[n+]1c(Cl)c(Cl)n(CC(O)c2ccccc2)[c]1[Ag-][I] (racemic) [AgM1]	96	able to inhibit MeWo viability	about 10%	more than 50%	15.4	14.8			phosphorylation of histone H2AX ([3]; at 5'-30'-1 h): significantly increase; cell cycle progression ([4]; 20 μM): G0/G1 phase cell cycle arrest; ERK phosphorylation (p-ERK) [5]: pronounced and significant decrease; apoptotic cells ([6]; 96 h of treatment): ~6.7%; reduction in cell viability ([2]; MeWo, 1 μM, 48 h): 30%; Minimum Inhibitory Concentration (MIC) ([2]; MeWo, 48 h): 1 µM
CC(C)(C)OC(=O)NCC(=O)[O-].[Ag+] [GlyAg, Boc-Glycine silver salt]									MeWo viability reduction [2, 13]: up to 80%
CC(C)(C)OC(=O)N[C@@H](Cc1ccccc1)C(=O)[O-].[Ag+] [PheAg, Boc-L-Phenylalanine silver salt]							no changes are observed	50	MeWo viability reduction [2, 13]: up to 80%
CC(C)(C)OC(=O)N[C@@H](Cc1ccccc1)C(=O)O.CN1[CH-]N(CC(O)c2ccccc2)C(Cl)=C1Cl.[Au+] [AuM1Phe]							no changes are observed	60	
C[n+]1ccn(CC(O)c2ccccc2)[c]1[Ag-][I] (racemic) [AgL20]	> 96	able to inhibit MeWo viability	about 10%	more than 50%	~19.4	18.3			change of cell viability (in words) ([2]; MeWo, 10 μM): apparent increase in cell viability
C[n+]1c(Cl)c(Cl)n(CC(O)c2ccccc2)[c]1[Au-][Cl] (racemic) [AuM1]	8	able to inhibit MeWo viability		more than 50%	5.48	3.12	no changes are observed	45	phosphorylation of histone H2AX ([3]; already after 5 min (5'-15'-30'-1 h)): significant and marked increase; HaCaT viability [9]: 70%; selectivity MeWo vs HaCaT (in words) [9]: most selective; cell cycle progression ([4]; 5 μM): G0/G1 phase cell cycle arrest; ERK phosphorylation (p-ERK) [5]: pronounced and significant decrease; apoptotic cells ([6]; 8 h of exposure, control 11.7%): 63.8%; MeWo viability ([2]; 5 μM, 48 h): 30%; MeWo viability reduction ([2]; 5 μM, 48 h): 70%; reduction of cell viability ([2]; MeWo, 48 h, concentration not restated, by context 10 μM): 95%
Cn1c(Cl)c(Cl)[n+](CC(O)c2ccccc2)[c]1[Ag-][O]C(=O)CNC(=O)OC(C)(C)C (stereo not drawn) [AgM1Gly]							no changes are observed		thermally stable up to temperature [10]: around 150 °C
